Measurements: patent US9321756B2, “Azole compounds as PIM inhibitors” (priority 2011, dated 2016)

Tests used:
Assay type in all cases: biochemical
[1] = target: full length recombinant Pim-1 (Homo sapiens (Human), UniProt P11309); assay: Pim enzyme assay (HTRF, phosphorylation of biotinylated-BAD (S112) peptide), Pim-1; details: Pim-1 enzyme assay; read-out: Pim_1_IC50
[2] = target: full length recombinant Pim-3 (Homo sapiens (Human), UniProt Q86V86); assay: Pim enzyme assay (HTRF, phosphorylation of biotinylated-BAD (S112) peptide), Pim-3; details: Pim-3 enzyme assay; read-out: Pim3 IC50
Text: Pim-3 was purchased from Millipore (UK).
The phosphorylation of biotinylated-BAD (S112) peptide by full length recombinant Pim-1, Pim-2, or Pim-3 protein was detected with streptavidin:Allophycocyanin (APC) conjugate and a europium (Eu) labeled antibody directed against phosphorylated-BAD (S112). […] The fluorescence is directly proportional to the amount of phosphorylated BAD peptide present in the reaction.
A reference compound was included on each assay plate in order to validate that plate; on one plate of every assay run, two additional reference compounds were included.
The final buffer conditions were as follows: 60 mM Hepes, pH 7.0, 0.05% BSA, 2 mM DTT. Incubations were carried out at RT (22° C.) for 2 h for Pim-1, 1 h and 30 min for Pim-3, and 45 min for Pim-2. The reaction was then stopped by the addition of 3 mM EDTA, and fluorescence was measured by an HTRF® Rubystar microplate reader. For each plate, percent of control (POC) values were calculated for each well. Values for the IC50 IP were estimated using a standard 4-parameter logistic model.

[3] = target: full length recombinant Pim-2 (Homo sapiens (Human), UniProt Q9P1W9); assay: Pim enzyme assay (HTRF, phosphorylation of biotinylated-BAD (S112) peptide), Pim-2; details: Pim-2 enzyme assay; read-out: Pim2_IC50
Sequence of full length recombinant Pim-2 (Q9P1W9 whole entry): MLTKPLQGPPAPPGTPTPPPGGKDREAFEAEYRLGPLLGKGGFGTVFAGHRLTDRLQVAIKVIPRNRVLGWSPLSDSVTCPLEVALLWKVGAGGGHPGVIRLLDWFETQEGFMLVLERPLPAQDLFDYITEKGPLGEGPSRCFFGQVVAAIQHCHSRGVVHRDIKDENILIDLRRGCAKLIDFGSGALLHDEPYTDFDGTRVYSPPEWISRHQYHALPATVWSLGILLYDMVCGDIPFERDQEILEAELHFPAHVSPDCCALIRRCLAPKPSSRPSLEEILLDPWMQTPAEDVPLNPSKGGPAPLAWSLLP

Sequence of full length recombinant Pim-1 (P11309 whole entry): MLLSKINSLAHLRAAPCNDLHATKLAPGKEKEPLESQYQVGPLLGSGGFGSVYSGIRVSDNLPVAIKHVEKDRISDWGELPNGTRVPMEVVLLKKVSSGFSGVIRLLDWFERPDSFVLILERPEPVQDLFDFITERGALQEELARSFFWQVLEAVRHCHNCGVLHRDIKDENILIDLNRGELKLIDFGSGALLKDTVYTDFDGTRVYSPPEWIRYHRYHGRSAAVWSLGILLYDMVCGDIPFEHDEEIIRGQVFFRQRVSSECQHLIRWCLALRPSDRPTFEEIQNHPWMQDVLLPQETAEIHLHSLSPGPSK

SMILES | IC50 [1] [nM] | IC50 [2] [nM] | IC50 [3] [nM]
Cc1[nH]c2ccc(CNc3nnc(-c4ccc5[nH]cc(-c6ccc(F)cc6F)c5c4)s3)cc2c1C [Example 147, 5-(3-(2,4-difluorophenyl)-1H-indol-5-yl)-N-((2,3-dimethyl-1H-indol-5-yl)methyl)-1,3,4-thiadiazol-2-amine] | 513 | 634 | > 3000
CC(=O)Nc1ccc(CNc2nnc(-c3ccc4[nH]cc(-c5ccc(F)cc5F)c4c3)s2)cc1 [Example 148, N-(4-(((5-(3-(2,4-difluorophenyl)-1H-indol-5-yl)-1,3,4-thiadiazol-2-yl)amino)methyl)phenyl)acetamide] | 777 | 1270 | > 3000
Fc1ccccc1-c1c[nH]c2ccc(-c3nnc(NCc4ccccc4)s3)cc12 [Example 149, N-benzyl-5-(3-(2-fluorophenyl)-1H-indol-5-yl)-1,3,4-thiadiazol-2-amine] | 1050 | 522 | > 3000
Nc1nnc(-c2ccc3[nH]cc(-c4cccc(C(F)(F)F)n4)c3c2)s1 [Example 182, 5-(3-(6-(trifluoromethyl)-2-pyridinyl)-1H-indol-5-yl)-1,3,4-thiadiazol-2-amine] | 121 | 22.5 | 135
N#Cc1cccc(-c2c[nH]c3ccc(-c4nnc(N)s4)cc23)n1 [Example 183, 6-(5-(5-amino-1,3,4-thiadiazol-2-yl)-1H-indol-3-yl)-2-pyridinecarbonitrile] | 156 | 48.2 | 174
Nc1nnc(-c2ccc3[nH]cc(-c4cccc(-n5ccccc5=O)n4)c3c2)s1 [Example 185, 6′-(5-(5-amino-1,3,4-thiadiazol-2-yl)-1H-indol-3-yl)-2H-1,2′-bipyridin-2-one] | 224 | 68.2 | 244
Nc1cc(-c2c[nH]c3ccc(-c4nnc(N)s4)cc23)ccn1 [Example 186, 4-(5-(5-amino-1,3,4-thiadiazol-2-yl)-1H-indol-3-yl)-2-pyridinamine] | 260 | 83.8 | 270
Nc1nnc(-c2ccc3[nH]cc(-c4cnc(N5CCCC5)cn4)c3c2)s1 [Example 189, 5-(3-(5-(1-pyrrolidinyl)-2-pyrazinyl)-1H-indol-5-yl)-1,3,4-thiadiazol-2-amine] | 564 | 73.2 | 690
Nc1cccc(-c2c[nH]c3ccc(-c4nnc(N)s4)cc23)n1 [Example 190, 6-(5-(5-amino-1,3,4-thiadiazol-2-yl)-1H-indol-3-yl)-2-pyridinamine] | 705 | 186 | 977
Nc1nnc(-c2ccc3[nH]cc(-c4cnc(N5CCOCC5)cn4)c3c2)s1 [Example 192, 5-(3-(5-(4-morpholinyl)-2-pyrazinyl)-1H-indol-5-yl)-1,3,4-thiadiazol-2-amine] | 908 | 266 | 2400
CCCCOc1cnc(-c2c[nH]c3ccc(-c4nnc(N)s4)cc23)cn1 [Example 193, 5-(3-(5-butoxy-2-pyrazinyl)-1H-indol-5-yl)-1,3,4-thiadiazol-2-amine] | 931 | 392 | 1550
Nc1nnc(-c2ccc3[nH]cc(-c4cnc(N5CCCC5=O)cn4)c3c2)s1 [Example 194, 1-(5-(5-(5-amino-1,3,4-thiadiazol-2-yl)-1H-indol-3-yl)-2-pyrazinyl)-2-pyrrolidinone] | 945 | 509 | 1040
Nc1nnc(-c2ccc3[nH]cc(-c4cnc(OC5CCCC5)cn4)c3c2)s1 [Example 195, 5-(3-(5-(cyclopentyloxy)-2-pyrazinyl)-1H-indol-5-yl)-1,3,4-thiadiazol-2-amine] | 956 | 506 | 1340
Nc1nnc(-c2ccc3[nH]cc(-c4cccc(O)n4)c3c2)s1 [Example 196, 6-(5-(5-amino-1,3,4-thiadiazol-2-yl)-1H-indol-3-yl)-2-pyridinol] | 2070 | 918 | > 3000
Cc1ccn(-c2cnc(-c3c[nH]c4ccc(-c5nnc(N)s5)cc34)cn2)n1 [Example 197, 5-(3-(5-(3-methyl-1H-pyrazol-1-yl)-2-pyrazinyl)-1H-indol-5-yl)-1,3,4-thiadiazol-2-amine] | 2270 | 836 | 2900
COc1cncc(-c2c[nH]c3ccc(-c4nnc(N)s4)cc23)c1 [Example 199, 5-(3-(5-methoxy-3-pyridinyl)-1H-indol-5-yl)-1,3,4-thiadiazol-2-amine] | 268 | 165 | 618
Nc1nnc(-c2ccc3[nH]cc(-c4cccc(NC5CCCCC5)n4)c3c2)s1 [Example 205, 6-(5-(5-amino-1,3,4-thiadiazol-2-yl)-1H-indol-3-yl)-N-cyclohexyl-2-pyridinamine] | 110 | 21.6 | 227

The remaining lines, values ahead:

IC50 [1] [nM] | IC50 [2] [nM] | IC50 [3] [nM] | SMILES
705 | 149 | 558 | Nc1nnc(-c2ccc3[nH]cc(-c4cccc(F)n4)c3c2)s1 [Example 209, 5-(3-(6-fluoro-2-pyridinyl)-1H-indol-5-yl)-1,3,4-thiadiazol-2-amine]
142 | 28.7 | 192 | Nc1cncc(-c2c[nH]c3ccc(-c4nnc(N)s4)cc23)n1 [Example 210, 6-(5-(5-amino-1,3,4-thiadiazol-2-yl)-1H-indol-3-yl)-2-pyrazinamine]
234 | 181 | 1630 | CNc1nnc(-c2ccc3[nH]cc(-c4cnc5ccccc5c4)c3c2)s1 [Example 217, N-methyl-5-(3-(3-quinolinyl)-1H-indol-5-yl)-1,3,4-thiadiazol-2-amine]
241 | 123 | 623 | CNc1nnc(-c2ccc3[nH]cc(-c4cn[nH]c4)c3c2)s1 [Example 218, N-methyl-5-(3-(1H-pyrazol-4-yl)-1H-indol-5-yl)-1,3,4-thiadiazol-2-amine]
551 | 204 | 686 | CNc1nnc(-c2ccc3[nH]cc(-c4ccncc4)c3c2)s1 [Example 219, N-methyl-5-(3-(4-pyridinyl)-1H-indol-5-yl)-1,3,4-thiadiazol-2-amine]
636 | 274 | 1230 | CNc1nnc(-c2ccc3[nH]cc(-c4cccnc4)c3c2)s1 [Example 220, N-methyl-5-(3-(3-pyridinyl)-1H-indol-5-yl)-1,3,4-thiadiazol-2-amine]
744 | 158 | 1490 | CNc1nnc(-c2ccc3[nH]cc(-c4cccc(N)c4)c3c2)s1 [Example 221, 5-(3-(3-aminophenyl)-1H-indol-5-yl)-N-methyl-1,3,4-thiadiazol-2-amine]
1010 | 268 | 1440 | CNc1nnc(-c2ccc3[nH]cc(-c4ccn[nH]4)c3c2)s1 [Example 222, N-methyl-5-(3-(1H-pyrazol-5-yl)-1H-indol-5-yl)-1,3,4-thiadiazol-2-amine]
1890 | 207 | > 3000 | CNc1nnc(-c2ccc3[nH]cc(-c4cccc(C(F)(F)F)c4)c3c2)s1 [Example 224, N-methyl-5-(3-(3-(trifluoromethyl)phenyl)-1H-indol-5-yl)-1,3,4-thiadiazol-2-amine]
